Results from US20130005811A1, “ANTIMICROBIAL TREATMENT FOR SEEDS AND SPROUTS” (priority 2010, published 2013).
“And” between values parts separate entries of the source, which are not always exact repeats. Identical values can stand only once.

Tests used:
alfalfa seeds = assay: Determination of alfalfa seed germination percentage; format: in vivo; settings: for Germination rate, average: average of 3 replicas
Procedure: Treated and non-treated seeds (5 g or number of seeds counted per replicate) were placed on the surface of a plastic tray. Three plastic trays were stacked vertically and top tray was filled with 100 ml of sterile deionized water or tap water which fed to the lower trays to maintain uniform moisture content for the seeds. The seeds were incubated at 22° C. for 72 hr. Each evaluation was based on three replicates of 200-400 seeds each. A seed was considered to have germinated if the seed coat was broken and a visible sprout was extending at least 8 mm from the original seed. Swollen seeds or ruptured seeds with sprout tissue still inside were not counted as germinated, because such seeds rarely sprouted completely after an additional 24 hr of incubation.

S. typhimurium DT 104 = assay: Salmonella on alfalfa seeds with an initial inoculum of 10^4 CFU/g; format: cell-based, Salmonella typhimurium DT104
Procedure: Five isolates of Escherichia coli O157:H7, including strain 932 (human isolate), E009 (beef isolate), E0018 (cattle isolate), E0122 (cattle isolate), E0139 (deer jerky isolate); and five isolates of Salmonella typhimurium DT104, including strain H2662 (cattle isolate), 11942A (cattle isolate), 13068A (cattle isolate), 152N17-1 (dairy isolate) and H3279 (human isolate) were used. Nalidixic acid-resistant (50 μg/ml) E. coli O157:H7 were used to facilitate enumeration. Each E. coli O157:H7 and Salmonella strain was grown in tryptic soy broth (TSB, Beckon Dickinson, Sparks, Md.) at 37° C. for 18 hr. Approximately equal cell numbers of each of the five strains were combined and used as a 5-strain mixture with cell numbers being adjusted by spectrophotometric (Spectronic Instruments, Rochester, N.Y.) determination as described in Zhao et al., (2009) J. Food Prot. 72: 928-936, incorporated herein by reference in its entirety. Bacterial cell numbers were confirmed by plating 0.1 ml of serial dilutions (1:10) in 0.1% peptone on tryptic soy agar (TSA, Beckon Dickinson) and Sorbitol MacConkey agar (SMA, Oxoid, Hampshire, UK) for E. coli O157:H7, and TSA and XLD agar (Beckon Dickinson) for Salmonella and incubating all plates at 37° C. for 24 hr, after which colonies were counted.
Levulinic acid (0.5%) and 0.05% sodium dodecyl sulfate (SDS) obtained from Sigma-Aldrich (St. Louis, Mo.) were tested in combination at 21±2° C. for their antimicrobial activity to E. coli O157:H7 and S. typhimurium on alfalfa seeds as a wash treatment. Calcium hypochlorite (Arch Chemicals, Smyrna, Ga.) at 20,000 μg/ml (ppm) was used as the positive control, and deionized water was used as the negative control.
Before each trial, 25 ml of sterile tap water and 25 g of alfalfa seeds were added to a WHIRL-PAK® bag (Nasco, Fort Atkinson, Wis.) and pummeled in a stomacher blender at 150 rpm for 1 min. Duplicate 0.1 ml portions of the contents were plated on SMA, XLD, and TSA plates to detect E. coli O157:H7 and Salmonella, and enumerate aerobic bacteria counts according to the protocols described below. Only E. coli O157:H7-negative and Salmonella-negative alfalfa seeds were used. Dry seeds (50 g) were individually placed in a sterilized glass beaker (1 L) and 5 ml of a mixture of E. coli O157:H7 or S. typhimurium DT 104 (high inocula at 10^8-10^9 CFU/ml and low inocula at 10^3-10^4 CFU/ml) was inoculated on the surface of the seeds in each glass beaker under a laminar flow hood. A sterile plastic spoon was used to mix for 2 min the seeds with bacterial suspension. […]
Inactivation of E. coli O157:H7 and Salmonella on Alfalfa Seeds: Inoculated, dried alfalfa seeds (50 g samples) were placed in a 1000 ml glass beaker containing 200 ml of treatment solution and agitated by a magnetic stir bar at 150 ppm at 21° C. for 0, 1, 2, 5, 10, 20, 30, and 60 min. Following treatment, 25 g of seeds was placed in a stomacher bag containing 25 ml 0.1M phosphate buffer, pH 7.2 (PBS) for levulinic acid plus SDS-treated seeds or neutralizing buffer ([…], Ltd., Worthing, England). The suspension was serially (1:10) diluted in 0.1% peptone water and 0.1 ml of each dilution was surface-plated in duplicate onto TSA and Sorbitol MacConkey agar containing 50 μg nalidixic acid/ml (TSA-NA and SMA-NA) for E. coli O157:H7, and on TSA and XLD containing ampicillin (32 μg/ml), tetracycline (16 μg/ml) and streptomycin (64 μg/ml) (TSA+ and XLD+) for S. typhimurium DT 104. All plates were incubated at 37° C. for 48 hr.

[1] = treatment for 1 h at 21° C., Ca(OCl)2 pH 11.4
[2] = dried at 21° C. for 2 hr, treated for 20 min (10 min in beaker and 10 min in a stomacher bag) at 21° C.

[Ca+2].[O-]Cl.[O-]Cl [20,000 ppm, Ca(OCl)2, pH 11.4, Calcium hypochlorite]
Effect on alfalfa seed germination (alfalfa seeds; 1 hr at 21° C., compared to tap water): substantially reduced germination percentage
Germination rate, average (alfalfa seeds; [1]): 47%
Germination rate, average (alfalfa seeds; treatment for 1 h at 21° C., listed as 20,000 ppm calcium hypochlorite): 47.3%
Germination rate, average (alfalfa seeds; treatment for 1 h at 21° C., row): 47%
Germination Ratio (Percentage), per replica (alfalfa seeds; [1]): 62% and 34% and 46%
Germination Ratio (germinated/total seeds), per replica (alfalfa seeds; [1]): 124/200 and 68/200 and 92/200
Salmonella on treated seeds by direct plating method (S. typhimurium DT 104; 10 min in glass beaker then pummeled 10 min in stomacher bag): negative
S. typhimurium DT 104 count in sample No. 1-10 (seeds) (S. typhimurium DT 104; [2]): −
S. typhimurium DT 104 count in sample No. 1-10 (treated supernatant) (S. typhimurium DT 104; [2]): −
Salmonella in solutions used for treatment (S. typhimurium DT 104; enrichment culture after use): negative
Salmonella detection in samples treated for 10 min (S. typhimurium DT 104; none pathogen-positive by direct plating): sporadically positive by enrichment culture assay
